Reference: paper PMC6804466 (Acta Pharmaceutica Sinica. B, 2019)
Marks after values point to notes of the source that are not given here.

Key:
Mock-HEK293 cells = test: Cytotoxicity of Imp, CCK-8 assay, Mock-HEK293 cells; assay type: cell-based, human; conditions: 24 h; for Effect of Cil or Prb on the survival rate of Mock cells treated with Imp: Imp 0–1 mmol/L plus the named inhibitor 200 μmol/L
hOAT3-HEK293 cells = test: Cytotoxicity of Imp, CCK-8 assay, hOAT3-HEK293 cells; assay type: cell-based, human; conditions: 24 h; for Survival rate of hOAT3-HEK293 cells with Imp in the presence of Cil or Prb: Imp 1 mmol/L plus the named inhibitor 200 μmol/L
[1] = Imp-induced nephrotoxicity in rabbits; assay type: in vivo, rabbit; conditions: for Imp-induced acute structural damage of rabbit kidney after coadministration: Imp 200 mg/kg i.v. plus Cil 200 mg/kg or Prb 50 mg/kg
[2] = calculated from maximum plasma concentration and plasma protein binding
[3] = cited from earlier work
[4] = human; cited from earlier work
hOAT1 = molecular target: T1, hOAT1 (Homo sapiens, UniProt Q4U2R8); test: Imp uptake by hOAT1-HEK293 cells; assay type: cell-based; conditions: 100 μmol/L, 10 min, with or without Prb 200 μmol/L
T1 sequence (Q4U2R8 1-563): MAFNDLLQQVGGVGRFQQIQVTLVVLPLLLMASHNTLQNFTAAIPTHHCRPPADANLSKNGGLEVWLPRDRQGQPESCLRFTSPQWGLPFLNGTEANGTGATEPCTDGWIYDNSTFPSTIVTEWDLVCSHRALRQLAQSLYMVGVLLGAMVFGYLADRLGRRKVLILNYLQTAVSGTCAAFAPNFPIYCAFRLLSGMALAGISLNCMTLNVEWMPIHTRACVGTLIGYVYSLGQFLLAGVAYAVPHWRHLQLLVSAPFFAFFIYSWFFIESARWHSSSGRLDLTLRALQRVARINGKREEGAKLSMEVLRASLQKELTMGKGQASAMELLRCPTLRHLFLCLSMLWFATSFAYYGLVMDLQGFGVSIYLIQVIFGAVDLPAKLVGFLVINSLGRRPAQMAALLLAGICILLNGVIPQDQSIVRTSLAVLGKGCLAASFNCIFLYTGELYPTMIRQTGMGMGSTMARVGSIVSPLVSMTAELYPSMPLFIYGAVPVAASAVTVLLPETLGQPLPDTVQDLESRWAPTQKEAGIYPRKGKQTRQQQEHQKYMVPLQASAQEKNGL

hOAT1-HEK293 cells = test: Cytotoxicity of Imp, CCK-8 assay, hOAT1-HEK293 cells; assay type: cell-based, human; conditions: Imp alone 1 mmol/L, 24 h
[5] = Pharmacokinetics of Imp in rabbits; assay type: in vivo; conditions: male, New Zealand white, rabbit, iv, 200 mg/kg
raOATs = test: Imp uptake by rabbit primary proximal tubule cells; assay type: cell-based; conditions: Imp 100 μmol/L, 10 min, vs si-Control cells
hOAT3 = molecular target: T2, hOAT3 (Homo sapiens, UniProt Q8TCC7); conditions: 100 μmol/L, 10 min, with or without Prb 200 μmol/L
T2 sequence (Q8TCC7 1-542): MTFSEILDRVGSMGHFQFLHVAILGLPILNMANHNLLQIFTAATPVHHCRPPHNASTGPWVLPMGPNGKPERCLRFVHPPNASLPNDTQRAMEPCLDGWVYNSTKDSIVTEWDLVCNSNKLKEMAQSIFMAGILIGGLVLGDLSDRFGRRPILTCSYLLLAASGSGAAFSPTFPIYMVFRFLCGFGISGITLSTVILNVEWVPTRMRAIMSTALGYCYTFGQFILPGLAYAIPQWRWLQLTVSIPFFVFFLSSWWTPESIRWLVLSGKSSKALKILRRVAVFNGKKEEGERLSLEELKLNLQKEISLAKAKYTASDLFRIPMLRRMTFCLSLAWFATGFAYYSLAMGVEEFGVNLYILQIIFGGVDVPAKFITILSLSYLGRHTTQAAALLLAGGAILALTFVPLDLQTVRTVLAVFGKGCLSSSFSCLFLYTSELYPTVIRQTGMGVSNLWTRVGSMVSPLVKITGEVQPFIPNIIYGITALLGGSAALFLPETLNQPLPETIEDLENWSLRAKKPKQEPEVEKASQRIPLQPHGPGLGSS

[6] = Imp 200 mg/kg i.v. with or without Cil 200 mg/kg or Prb 50 mg/kg, 48 h

CC1(C)C[C@@H]1C(=O)N/C(=C\CCCCSC[C@H](N)C(=O)O)C(=O)O [Cil, cilastatin]
Effect of Cil or Prb on the survival rate of Mock cells treated with Imp (Mock-HEK293 cells): little effect | Survival rate of hOAT3-HEK293 cells with Imp in the presence of Cil or Prb (hOAT3-HEK293 cells): 66.3% | Imp-induced acute structural damage of rabbit kidney after coadministration ([1]; 48 h): significantly reduced | Peak level of free Cil in human [2]: about 140 μmol/L | Maximum clinical plasma concentration of Cil ([3]; human): 88 µg/mL | Plasma protein binding of Cil [4]: approximately 40%

CCCN(CCC)S(=O)(=O)c1ccc(C(=O)O)cc1 [Prb, probenecid]
Effect of Cil or Prb on the survival rate of Mock cells treated with Imp (Mock-HEK293 cells): little effect | Survival rate of hOAT3-HEK293 cells with Imp in the presence of Cil or Prb (hOAT3-HEK293 cells): 76.2% | Imp-induced acute structural damage of rabbit kidney after coadministration ([1]; 48 h): significantly reduced

C[C@@H](O)[C@H]1C(=O)N2C(C(=O)O)=C(SCCN=CN)C[C@H]12 [Imp, Imipenem]
Substrate of hOAT1 (uptake vs Mock cells, inhibited by Prb) (hOAT1): substrates of hOAT1 and hOAT3 | Survival rate of Mock-HEK293 cells (Mock-HEK293 cells; Imp alone 1 mmol/L): 85.8% | Survival rate of hOAT1-HEK293 cells (hOAT1-HEK293 cells): 47.5% | Survival rate of hOAT3-HEK293 cells (hOAT3-HEK293 cells; Imp alone 1 mmol/L): 27.2% | Renal histology (HE and PAS staining) ([1]; Imp 200 mg/kg i.v. alone, 48 h): severe renal damage | Body weight 0 h ([1]; Imp 200 mg/kg i.v. with or without Cil 200 mg/kg or Prb 50 mg/kg, 0 h (baseline)): 2.87 ± 0.24 kg | Body weight 48 h [1, 6]: 2.69 ± 0.24 kg | Kidney weight [1, 6]: 13.2 ± 1.5 g | Kidney/body weight ratio [1, 6]: 4.81 ± 0.29 ^a g/kg | AUC(0-t) ([5]; plasma): 289 ± 48.7 µg·h/mL | clearance ([5]; plasma): 11.9 mL/min/kg | half-life ([5]; plasma): 58 ± 4.2 min | CL renal ([5]; urine): 2.78 mL/min/kg | Increase in intracellular level of Imp in rPTCs transfected with si-DHP-I (raOATs): 30% | Substrate of hOAT3 (uptake vs Mock cells, inhibited by Prb) (hOAT3): substrates of hOAT1 and hOAT3 | Renal excretion of Imp [3]: ~70%
